Patent US11117899B2, “[1,2,4]triazolo[1,5-c]pyrimidine derivative as A2A receptor inhibitor” (MEDSHINE DISCOVERY INC., priority 2017, dated 2021)
≈ marks a conversion by molar mass, not a printed value.

Experiments:
[1] = Determination of kinetic solubility; format: physicochemical; details: aqueous buffer, kinetic from dmso stock, 50 mM phosphate buffer pH 7.4, 24 hours, room temperature, 200 μM maximum
Protocol: The test compounds were dissolved in DMSO to prepare 10 mmol/L stock solutions. The stock solutions were diluted with 50% ACN/50 mM phosphate buffer (pH 7.4) to prepare standard solutions (1 μM, 20 μM, […]).
490 μL of dissolution medium (50 mM phosphate buffer solution, pH 7.4) was pipetted into a 96-well plate with a single-well volume of 2 mL using a pipette (Eppendorf Research Inc.). 10 μL of the stock solution of each test compounds and QC sample (10 mmol/L DMSO stock solution) were added to the dissolution medium, respectively, and the sample plate was sealed with a sealing film. The final concentration of the test compounds and DMSO in the sample solution were 200 μM and 2%, respectively. The mixture was shaken at 600 rpm for 24 hours at room temperature. 200 μL of the sample solution was transferred into a 96-well filter plate using a pipette and filtered with suction. The filtrate and the standard solution were detected by high performance liquid chromatography (HPLC-DAD). The concentration of the test compounds in the filtrate was calculated by an external standard method, which was the kinetic solubility of the compounds.

[2] = Pharmacokinetics in female Balb/c mice; format: in vivo; details: mouse, plasma, single intravenous injection / single oral administration; for bioavailability: read-out: Bioavailability F; for AUC: read-out: Concentration integral AUC; for half-life: read-out: Half-life T1/2 (converted)
Protocol: Objective: To test the pharmacokinetics of compounds in female Balb/c mice in vivo
Balb/c mice (female, 15-30 g, 7-9 weeks old, Shanghai Lingchang)
The pharmacokinetics profile of the compounds in rodent after intravenous injection and oral administrations was tested using a standard protocol. In the assay, the candidate compound was formulated into a clear solution and administrated to the mice through a single intravenous injection, and formulated into a uniform suspension and administrated to the mice through a single oral administration. […] The whole blood samples were collected within 24 hours, centrifuged at 3000 g at 4° C. for 15 minutes, and plasma samples were obtained by separating the supernatant. 20 times volume of acetonitrile solution containing an internal standard was added to precipitate proteins. After centrifugation, the supernatant was collected, to which an equal volume of water was added, and further centrifuged to collect the supernatant. The LC-MS/MS method was used to quantitatively analyze the plasma concentration, and the pharmacokinetics parameters, such as peak concentration, peak time, clearance rate, half-life, area under the curve, and bioavailability were calculated.

[3] = target: T1, Human adenosine A2A receptor (Homo sapiens, UniProt P29274); experiment: Human adenosine A2A receptor calcium flux assay; format: cell-based; details: A2A stable CHO cell strain, antagonist mode against agonist NECA at EC80, FLIPR Fluo-4
T1 construct: host or cells: CHO
Protocol: Human adenosine A2A receptor calcium flux assay
A2A stable cell strain was constructed by Shanghai WuXi PharmaTech, and the host cell was CHO.
Fluo-4 Direct Kit (Invitrogen, Cat. No. F10471). After the fluorescent detection reagent (specifically binding to calcium ions and causing an increase in fluorescence signal) in the kit was incubated with the cells for a suitable period of time, the compound was added to stimulate the cells to cause changes in intracellular calcium flux, thereby causing changes in the fluorescent signal, which can reflect the strength of the agonistic or inhibitory activity of the compound.
F12+10% fetal bovine serum+geneticin 300 ug/ml+blasticidin 2 ug/ml Compound dilution buffer:
Hanks Balanced Salt Buffer (Invitrogen)+20 mM HEPES, configured before each use
The test compounds were dissolved in DMSO to prepare 10 mM stock solutions. The test compounds were diluted to 0.2 mM with DMSO, and the reference compound CGS-15943 was diluted to 0.015 mM with DMSO. Next, 10 points of three-fold serial dilutions were made with ECHO. 900 nl was transferred to the compound plate (Greiner-781280), and 30 ul of compound dilution buffer was added. The final starting concentration of the test compounds was 1 uM and CGS-15943 was 0.075 uM.
Cryopreserved A2A cells were resuscitated, and then resuspended in culture medium to 1×10^6 cells/ml. The suspension was seeded into 384-well polylysine-coated cell plates (Greiner-781946) at 20 μl/well and incubated overnight in a 5% CO2 incubator at 37° C.
The cell plate prepared the day before was taken out from the incubator, and 20 ul of 2× Fluo-4 Direct™ buffer was added to each well. The plate was incubated for 50 minutes in a 5% CO2 incubator at 37° C. and allowed to stand at room temperature for 10 minutes.
Dilution of agonist NECA: 10 points of three-fold serial dilutions were made with Echo for NECA from a starting concentration of 0.15 mM. 900 nL was then transferred to the corresponding compound plate; and then 30 μl of compound dilution buffer was added to the corresponding compound plate. The final starting concentration was 750 nM.
FLIPR instrument software was run. According to the programmed procedure, 10 ul of compound dilution buffer was added to the cell plate and the fluorescence signal was read. 10 ul of the agonist reference compound at the indicated concentration was then added to the cell plate and the fluorescent signal was read. After reading, the data was exported by the “Max-Min”, “Read 90 to Maximum allowed” method in the software, and the EC80 of the A2A cell line was calculated. The agonist was prepared at a concentration of 6× EC80. A 6× EC80 concentration of a reference compound agonist of the corresponding cells was prepared with a buffer solution, and added at 30 ul/well to the corresponding compound plate for use.
FLIPR instrument software was run. According to the programmed procedure, 10 μl of the test compounds and reference compound at an indicated concentration was added to the cell plate and the fluorescence signal was read. 10 ul of the reference compound agonist at a concentration of 6× EC80 was then added to the cell plate and the fluorescent signal was read. For the agonist detection of the compounds, the data was exported by the “Max-Min”, “Read 1 to 90” method in the software. For the antagonist detection of the compound, the data was exported by the “Max-Min”, “Read 90 to Maximum allowed” method in the software. Data were analyzed by GraphPad Prism 5.0 and the IC50 values of the test compounds were calculated.

T1 sequence (P29274 whole entry): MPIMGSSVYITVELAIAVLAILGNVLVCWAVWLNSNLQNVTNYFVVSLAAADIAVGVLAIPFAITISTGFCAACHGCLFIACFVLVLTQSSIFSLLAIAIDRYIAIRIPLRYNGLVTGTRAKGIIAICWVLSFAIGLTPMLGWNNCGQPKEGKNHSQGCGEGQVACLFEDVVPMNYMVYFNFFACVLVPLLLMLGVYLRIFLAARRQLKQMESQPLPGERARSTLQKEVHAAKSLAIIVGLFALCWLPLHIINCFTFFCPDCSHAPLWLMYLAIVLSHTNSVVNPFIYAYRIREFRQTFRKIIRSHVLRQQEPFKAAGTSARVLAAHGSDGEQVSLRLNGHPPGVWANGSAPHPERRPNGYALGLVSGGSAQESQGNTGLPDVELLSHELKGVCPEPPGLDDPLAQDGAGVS

| Structure (SMILES) | solubility at 24 h [1] [µM] | clearance [2] [mL/min/kg] | bioavailability [2] [%] | AUC [2] [µM·h] | half-life [2] [min] | IC50 [3] [nM] |
| --- | --- | --- | --- | --- | --- | --- |
| Cc1cc(-c2nnc(N)nc2-c2ccccc2)cc(C(F)(F)F)n1 [Compound A, reference compound] | 29.2 (≈ 9.67 µg/mL) | 208 | 21.6 | 0.501 | 16.8 | – |
| Cc1cc(-c2c(-c3ccccc3)nc(N)n3ncnc23)cc(C(F)(F)F)n1 [Example A-1] | 185 (≈ 68.5 µg/mL) | 51.2 | 41.1 | 3.33 | 28.2 | 0.23 |
| Cc1cc(-c2c(-c3cccc(F)c3F)nc(N)n3ncnc23)cc(C(F)(F)F)n1 [Example A-3] | 92.5 (≈ 37.6 µg/mL) | – | – | – | – | 0.32 |
| COc1ccccc1-c1nc(N)n2ncnc2c1-c1cc(C)nc(C(F)(F)F)c1 [Example A-4] | 160 (≈ 64.1 µg/mL) | – | – | – | – | 1.08 |

More lines, now with the values ahead:

| solubility at 24 h [1] [µM] | clearance [2] [mL/min/kg] | bioavailability [2] [%] | AUC [2] [µM·h] | half-life [2] [min] | IC50 [3] [nM] | Structure (SMILES) |
| --- | --- | --- | --- | --- | --- | --- |
| 197 (≈ 62.3 µg/mL) | 24 | 91 | 19.6 | 19.8 | 0.28 | Cc1cc(-c2c(-c3ccccc3)nc(N)n3ncnc23)cc(C)n1 [Example B-5] |
| 54.5 (≈ 21.3 µg/mL) | – | – | – | – | 1.55 | Nc1nc(-c2ccccc2)c(-c2cc(Cl)nc(C(F)(F)F)c2)c2ncnn12 [Example B-28] |
| 56 (≈ 18.9 µg/mL) | 44.3 | 17.4 | 1.73 | 15 | 0.28 | Cc1cc(-c2c(-c3ccccc3)nc(N)n3ncnc23)cc(Cl)n1 [Example B-31] |
| 194 (≈ 67.2 µg/mL) | 38.7 | 70.7 | 8.79 | 55.2 | 0.4 | Cc1cc(-c2c(-c3ccccc3)nc(N)n3nc(CO)nc23)cc(C)n1 [Example C-19] |
| > 200 | 18 | 95.2 | 22 | 72 | 0.65 | Cc1cc(-c2c(-c3ccccc3)nc(N)n3nc(CO)nc23)cc(C(F)(F)F)n1 [Example C-33] |
| 168 (≈ 70.3 µg/mL) | 7.51 | 82.9 | 43.9 | 119 | 1.36 | Cc1cc(-c2c(-c3ccc(F)cc3)nc(N)n3nc(CO)nc23)cc(C(F)(F)F)n1 [Example C-43] |
| 172 (≈ 69.2 µg/mL) | 0.54 | 44 | 20.1 | 115 | 3.08 | Cc1cc(-c2c(-c3ccc(F)cc3)nc(N)n3nc(C)nc23)cc(C(F)(F)F)n1 [Example C-46] |
| 78.9 (≈ 34.6 µg/mL) | 2.5 | 123 | 157 | 436 | 1.72 | Nc1nc(-c2ccc(F)cc2)c(-c2cc(Cl)nc(C(F)(F)F)c2)c2nc(CO)nn12 [Example C-58] |
